Activity calls are given as the source filed them. A value given as a limit tells only on which side of the number the result lay.

Test [1] has as its target T1, Protein RecA (Mycobacterium tuberculosis, UniProt P9WHJ3).
T1 sequence (P9WHJ3 whole entry): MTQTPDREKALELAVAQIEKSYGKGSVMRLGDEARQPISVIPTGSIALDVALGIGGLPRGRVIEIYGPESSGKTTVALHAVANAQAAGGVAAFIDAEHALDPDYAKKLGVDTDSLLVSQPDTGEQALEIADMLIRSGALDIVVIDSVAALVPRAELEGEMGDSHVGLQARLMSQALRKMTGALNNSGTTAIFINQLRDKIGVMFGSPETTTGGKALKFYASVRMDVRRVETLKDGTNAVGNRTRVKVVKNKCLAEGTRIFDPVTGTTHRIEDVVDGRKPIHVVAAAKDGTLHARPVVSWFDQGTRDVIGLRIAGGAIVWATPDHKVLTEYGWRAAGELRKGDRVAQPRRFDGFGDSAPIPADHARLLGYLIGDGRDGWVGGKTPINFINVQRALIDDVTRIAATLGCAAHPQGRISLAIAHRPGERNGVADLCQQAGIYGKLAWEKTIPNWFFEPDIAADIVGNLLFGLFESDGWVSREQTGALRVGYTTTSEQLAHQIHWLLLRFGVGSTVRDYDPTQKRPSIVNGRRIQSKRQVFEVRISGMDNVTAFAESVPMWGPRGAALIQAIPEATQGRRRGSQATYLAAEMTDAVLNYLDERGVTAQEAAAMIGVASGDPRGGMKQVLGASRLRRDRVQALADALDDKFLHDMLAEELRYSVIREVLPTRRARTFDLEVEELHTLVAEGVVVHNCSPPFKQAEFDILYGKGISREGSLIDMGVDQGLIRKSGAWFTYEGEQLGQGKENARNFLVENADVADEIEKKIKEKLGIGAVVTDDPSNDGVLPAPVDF
Nature of the test: Fluorescence Cell-Free Homogeneous Dose Retest to Identify Inhibitors of RecA-Intein Splicing Activity. [Related pubchem assays (depositor defined):AID2097, AID2223, AID489010, AID492950]. The test is classed as functional.

The target in test [2] is T2, Apoptotic protease-activating factor 1 (Homo sapiens, UniProt O14727).
T2 sequence (O14727 whole entry): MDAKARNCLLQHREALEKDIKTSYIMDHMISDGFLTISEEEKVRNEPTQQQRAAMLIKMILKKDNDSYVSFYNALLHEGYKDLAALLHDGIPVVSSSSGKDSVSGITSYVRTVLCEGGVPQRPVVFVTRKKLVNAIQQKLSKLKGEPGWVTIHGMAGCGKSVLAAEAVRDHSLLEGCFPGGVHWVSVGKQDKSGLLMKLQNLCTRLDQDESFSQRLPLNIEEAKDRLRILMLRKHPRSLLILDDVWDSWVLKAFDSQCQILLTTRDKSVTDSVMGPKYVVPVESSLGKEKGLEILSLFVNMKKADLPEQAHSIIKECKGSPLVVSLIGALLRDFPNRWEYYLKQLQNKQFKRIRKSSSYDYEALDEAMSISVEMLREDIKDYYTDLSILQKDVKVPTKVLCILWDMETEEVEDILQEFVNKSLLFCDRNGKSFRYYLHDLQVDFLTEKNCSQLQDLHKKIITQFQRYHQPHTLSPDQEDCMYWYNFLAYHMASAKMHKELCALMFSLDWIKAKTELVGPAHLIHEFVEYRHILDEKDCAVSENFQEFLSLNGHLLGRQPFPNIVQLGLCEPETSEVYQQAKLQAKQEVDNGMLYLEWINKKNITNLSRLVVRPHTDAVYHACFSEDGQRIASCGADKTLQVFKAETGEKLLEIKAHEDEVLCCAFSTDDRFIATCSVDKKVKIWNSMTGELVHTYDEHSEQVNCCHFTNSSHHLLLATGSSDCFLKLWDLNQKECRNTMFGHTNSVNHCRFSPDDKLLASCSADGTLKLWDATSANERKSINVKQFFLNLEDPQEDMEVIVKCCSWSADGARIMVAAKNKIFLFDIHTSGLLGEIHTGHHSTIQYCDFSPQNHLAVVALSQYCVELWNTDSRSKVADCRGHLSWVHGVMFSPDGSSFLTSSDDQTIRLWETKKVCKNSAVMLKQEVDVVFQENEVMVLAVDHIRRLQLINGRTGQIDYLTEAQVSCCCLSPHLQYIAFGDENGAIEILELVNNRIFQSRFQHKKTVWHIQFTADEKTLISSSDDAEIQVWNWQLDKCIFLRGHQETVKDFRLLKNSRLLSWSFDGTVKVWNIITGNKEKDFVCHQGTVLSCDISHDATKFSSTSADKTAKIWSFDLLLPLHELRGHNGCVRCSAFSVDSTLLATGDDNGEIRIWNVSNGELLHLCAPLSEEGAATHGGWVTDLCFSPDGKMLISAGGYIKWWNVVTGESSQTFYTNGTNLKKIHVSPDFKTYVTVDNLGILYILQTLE
The test is classed as functional.

The target in test [3] is T3, Microphthalmia-associated transcription factor (Homo sapiens, UniProt O75030).
T3 sequence (O75030 whole entry): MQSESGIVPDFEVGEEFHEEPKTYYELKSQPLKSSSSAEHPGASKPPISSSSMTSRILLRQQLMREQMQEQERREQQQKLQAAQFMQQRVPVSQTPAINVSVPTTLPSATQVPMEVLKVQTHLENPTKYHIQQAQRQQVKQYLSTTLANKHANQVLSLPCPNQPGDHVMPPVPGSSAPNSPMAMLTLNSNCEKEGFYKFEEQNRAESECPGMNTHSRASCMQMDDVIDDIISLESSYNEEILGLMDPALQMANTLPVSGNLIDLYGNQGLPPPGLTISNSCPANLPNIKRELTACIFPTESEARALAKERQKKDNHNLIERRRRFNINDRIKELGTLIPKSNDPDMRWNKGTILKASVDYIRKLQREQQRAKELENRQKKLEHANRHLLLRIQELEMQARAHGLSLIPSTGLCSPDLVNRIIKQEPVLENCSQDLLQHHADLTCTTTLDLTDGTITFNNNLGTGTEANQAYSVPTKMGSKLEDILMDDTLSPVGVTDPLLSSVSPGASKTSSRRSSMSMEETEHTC
The test is described as follows: TRPM1 promoter luciferase signal decrease, dose response, MITF inhibitor project, cell-based, SK-MEL-5, cherry-picked, set 3 (AID 493073).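 Also: SK-MEL-5 melanoma cells with luciferase driven by the MITF target TRPM1 promoter.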 The test is classed as functional.

Test [4] addresses T4, Replicative DNA helicase DnaB (Mycobacterium tuberculosis, UniProt P9WMR3).
T4 sequence (P9WMR3 whole entry): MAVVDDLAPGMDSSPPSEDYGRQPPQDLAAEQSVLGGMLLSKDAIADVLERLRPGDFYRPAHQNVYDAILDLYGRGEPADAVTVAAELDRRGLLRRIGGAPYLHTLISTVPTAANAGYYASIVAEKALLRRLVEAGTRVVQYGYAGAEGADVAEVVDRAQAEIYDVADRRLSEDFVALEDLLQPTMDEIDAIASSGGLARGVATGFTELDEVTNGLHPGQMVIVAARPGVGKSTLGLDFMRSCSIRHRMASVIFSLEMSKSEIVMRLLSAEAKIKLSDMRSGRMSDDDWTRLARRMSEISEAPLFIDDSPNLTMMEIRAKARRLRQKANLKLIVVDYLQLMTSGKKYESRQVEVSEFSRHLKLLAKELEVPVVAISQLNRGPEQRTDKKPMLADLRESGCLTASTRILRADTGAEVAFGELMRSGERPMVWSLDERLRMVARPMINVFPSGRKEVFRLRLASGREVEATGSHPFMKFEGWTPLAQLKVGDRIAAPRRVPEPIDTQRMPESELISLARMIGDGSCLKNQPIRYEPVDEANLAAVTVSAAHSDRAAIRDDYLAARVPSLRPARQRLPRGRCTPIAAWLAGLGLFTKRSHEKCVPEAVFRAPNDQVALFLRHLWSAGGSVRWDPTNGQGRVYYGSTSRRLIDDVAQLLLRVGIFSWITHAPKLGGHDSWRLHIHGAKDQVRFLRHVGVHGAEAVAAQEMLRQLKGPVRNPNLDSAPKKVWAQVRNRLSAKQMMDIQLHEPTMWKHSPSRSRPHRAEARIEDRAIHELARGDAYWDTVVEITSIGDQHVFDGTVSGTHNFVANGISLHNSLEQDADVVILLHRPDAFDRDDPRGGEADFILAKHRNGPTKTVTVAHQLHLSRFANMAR
Nature of the test: DnaB intein splicing inhibitors, dose response, biochemical, cell-free fluorescence (AID 449749). The test is classed as functional.

The subject of test [5] is INS1. Nature of the test: beta cell apoptosis inhibitors, cytokine rescue, dose response, luminescence, retest (AID 449756).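 Also: cell death triggered by IL-1 beta plus TNF-alpha plus IFN-gamma mixture; protective hits raise ATP signal compared with cytokine alone wells.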 To be noted: Rattus norvegicus. In kind it is functional, cell-based.
In test [6] the target is Kallikrein-7 (Homo sapiens, UniProt P49862). The test is described as follows: Fluorescence Intensity-based biochemical primary high throughput dose response assay to identify activators of kallikrein-7 (K7) zymogen.
Chain of Kallikrein-7 (P49862 whole entry): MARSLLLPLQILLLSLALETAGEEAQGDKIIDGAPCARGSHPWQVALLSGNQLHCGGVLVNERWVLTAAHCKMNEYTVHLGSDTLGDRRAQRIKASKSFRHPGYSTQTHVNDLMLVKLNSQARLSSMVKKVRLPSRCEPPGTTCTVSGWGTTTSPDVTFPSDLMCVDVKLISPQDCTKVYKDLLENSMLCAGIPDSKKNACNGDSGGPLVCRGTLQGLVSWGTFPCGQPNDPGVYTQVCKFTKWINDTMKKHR
Test [7] can be described thus: HeLa cell cytotoxicity, dose response, cytotoxicity control for MgcRacGAP inhibitor project (AID 624300). The test is classed as functional.
The target in test [8] is T5, DNA repair protein RAD52 homolog (Homo sapiens, UniProt P43351).
T5 sequence (P43351 whole entry): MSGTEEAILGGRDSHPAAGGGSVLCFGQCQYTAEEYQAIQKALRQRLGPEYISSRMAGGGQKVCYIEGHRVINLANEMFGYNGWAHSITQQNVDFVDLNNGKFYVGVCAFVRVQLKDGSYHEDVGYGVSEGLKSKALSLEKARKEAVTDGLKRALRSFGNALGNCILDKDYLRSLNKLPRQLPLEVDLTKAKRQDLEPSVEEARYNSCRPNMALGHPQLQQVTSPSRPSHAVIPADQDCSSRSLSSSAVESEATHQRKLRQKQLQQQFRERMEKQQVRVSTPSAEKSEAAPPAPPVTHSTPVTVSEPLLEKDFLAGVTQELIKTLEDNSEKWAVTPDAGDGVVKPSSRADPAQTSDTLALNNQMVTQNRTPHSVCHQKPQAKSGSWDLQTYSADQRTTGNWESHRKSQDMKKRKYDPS
The test is classed as functional, biochemical.

For test [9], the target named is Glucose-6-phosphate 1-dehydrogenase (Homo sapiens, UniProt P11413). The test is described as follows: human G6PD enzyme inhibitors, dose response, selectivity assay for P. falciparum G6PD inhibitor project, biochemical, fluorescence (AID 504792). In kind it is functional.
Chain of Glucose-6-phosphate 1-dehydrogenase (P11413 whole entry): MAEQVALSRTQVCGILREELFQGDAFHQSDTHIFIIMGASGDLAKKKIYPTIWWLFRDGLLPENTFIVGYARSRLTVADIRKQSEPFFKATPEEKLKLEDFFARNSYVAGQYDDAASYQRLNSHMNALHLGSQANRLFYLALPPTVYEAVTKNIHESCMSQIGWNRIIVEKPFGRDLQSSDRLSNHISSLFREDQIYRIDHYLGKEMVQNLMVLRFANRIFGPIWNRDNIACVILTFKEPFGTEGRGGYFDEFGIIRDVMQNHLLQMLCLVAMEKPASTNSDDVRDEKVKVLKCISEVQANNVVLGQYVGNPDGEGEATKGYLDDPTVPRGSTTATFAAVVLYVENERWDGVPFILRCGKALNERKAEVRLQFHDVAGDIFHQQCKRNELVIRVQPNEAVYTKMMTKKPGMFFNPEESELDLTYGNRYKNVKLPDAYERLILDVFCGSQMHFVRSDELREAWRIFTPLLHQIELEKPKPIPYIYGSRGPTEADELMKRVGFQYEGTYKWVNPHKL
Test [10] concerns the target T6, Rac GTPase-activating protein 1 (Homo sapiens, UniProt Q9H0H5).
T6 sequence (Q9H0H5 whole entry): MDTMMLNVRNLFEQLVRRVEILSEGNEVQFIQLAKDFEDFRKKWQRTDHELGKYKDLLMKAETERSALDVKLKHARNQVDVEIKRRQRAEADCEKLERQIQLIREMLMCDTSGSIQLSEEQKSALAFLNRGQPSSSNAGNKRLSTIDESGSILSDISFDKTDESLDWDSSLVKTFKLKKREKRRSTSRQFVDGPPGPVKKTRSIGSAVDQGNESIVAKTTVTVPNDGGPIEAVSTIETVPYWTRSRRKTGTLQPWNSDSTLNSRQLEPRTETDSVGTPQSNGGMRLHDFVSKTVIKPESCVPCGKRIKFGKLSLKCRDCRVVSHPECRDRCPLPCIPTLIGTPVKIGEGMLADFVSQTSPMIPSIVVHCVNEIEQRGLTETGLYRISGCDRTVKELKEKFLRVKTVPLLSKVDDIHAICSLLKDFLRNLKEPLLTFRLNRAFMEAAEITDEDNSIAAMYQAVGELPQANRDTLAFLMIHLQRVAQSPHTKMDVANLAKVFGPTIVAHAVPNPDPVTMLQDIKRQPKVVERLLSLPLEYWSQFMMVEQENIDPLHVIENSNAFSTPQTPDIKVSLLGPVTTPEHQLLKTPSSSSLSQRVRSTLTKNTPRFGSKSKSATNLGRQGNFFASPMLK
The test is described as follows: MgcRacGAP GTPase-activating activity inhibitors, confirmation, biochemical, ADP Hunter fluorescence, primary and confirmatory (AID 624330). The test is classed as functional.

`O=C(NC1=C(Nc2ccc(Cl)cc2)C(=O)c2ccccc2C1=O)c1ccccc1`: the EC50 in [1] was 6.55 µM (active). Besides, the IC50 in test [2] is 39.7 µM (active). The AC50 in test [3] was 0.93 µM (active); in [4] it was 10.4 µM (active); in test [5], 6.9 µM (active).
In the case of `CCOc1cc(CNc2ccc3c[nH]nc3c2)ccc1OC`, the 50% effective concentration (EC50) in [1] is 7.37 µM (active). In test [2], the IC50 is 25.2 µM (active). Besides, the AC50 in test [4] was > 380 µM (inactive).
As for `CN(C)/C=N/c1ccc2[nH]c3c4ccccc4nc-3cc2c1`, the concentration giving a half-maximal response (EC50) in [6] was > 2.57 µM (active). Also, the CC50 in test [7] is 100 µM (active). For the same molecule, the 50% inhibitory concentration (IC50) in test [2] is 30.7 µM (active); in test [9], > 80 µM (inactive); in [10], 52.8 µM (active). For the same molecule, the AC50 in test [8] is 3.13 µM (active).

The record behind these values is ChEMBL document CHEMBL1201862, “PubChem BioAssay data set” (2004).
